Experimental findings from patent publication US12479888B2, “Polypeptide and application thereof” (HDL SOLUTIONS OTTAWA, priority 2019, dated 2025) are described below.

Common to all, as to type: in vivo
The subject of experiment [1] is apoE knockout mice. Kind of experiment: Oil Red O staining of aortic root cryostat sections, area of neutral lipids. Conditions: HFD+21H21 vs HFD, 50 μg tail vein once every four days, 10 injections. The text has this:
(§1) Male apoE knockout mice (C57BL/6J) at age of 10 weeks were purchased from GemPharmatech, Nanjing, Jiangsu, China. The mice were fed with low fat diet [SPF growth and reproduction feed for rats and mice: 12.95% fat (wt/wt), 24.02% protein (wt/wt)] from Beijing KeaoXieli Feed Co. Ltd., Beijing, China in a pathogen-free facility for two weeks, and then divided into the following three groups (8 mice each group): (a) the control group was fed low fat diet, referred to as Chow; (b) the high-fat group was fed high-fat diet (HFD) [21% fat (wt/wt), 0.15% (wt/wt) cholesterol, 20% protein (wt/wt), Research Diets, New Brunswick, NJ, D12079B], referred to as the HFD; (c) the treatment group was fed high-fat diet plus the injection through tail vein with polypeptide 21H21 (50 μg/200μL 1× PBS) once every four days, referred to as the HFD+21H21. The total injection was 10 times. One day after the last injection, the mice were anesthetized and euthanized in carbon dioxide, and then blood, liver and aorta were collected. During the period of the experiment, each group of mice was weighed. All animal experiments were carried out in accordance with the animal management guidelines of the People's Republic of China.
The upper half of the heart together with the aortic root tissue collected in Experimental Example 1 was embedded in OCT compound (Sakura Tissue-Tek) and stored at −80° C. […]

Experiment [2] is described as follows: Body weight of apoE knockout mice on high-fat diet.
Excerpt: as §1

Experiment [3] deals with apoE knockout mice. Kind of experiment: Oil Red O staining of liver cryostat sections, area of neutral lipids. Conditions: HFD+21H21 vs HFD, 50 μg tail vein once every four days, 10 injections, p value=0.0004.
Excerpt: as §1
Liver tissue collected in Experimental Example 1 was embedded in OCT compound (Sakura Tissue-Tek) and then stored at −80° C. […]

In experiment [4] the test system is apoE knockout mice. Kind of experiment: Oil Red O staining of full-length aorta, area of neutral lipids. Conditions: HFD+21H21 vs HFD, 50 μg tail vein once every four days, 10 injections, p value=4.40108E-05.
Excerpt: as §1
Aorta separation in Experimental Example 1 was carried out as Tangirala R K, et al. (Circulation. 1999; 100: 1816-1822). […]

In the next experiment the test system is LDLR-deficient mice. Described as above. Conditions: HFD+21H21 vs HFD, 50 μg tail vein once every three days, 10 injections. The text has this:
(§2) Male LDLR-deficient mice (C57BL/6-Ldlrem1Cd82/Nju) at age of 11 weeks were purchased fromGemPharmatech, Nanjing, Jiangsu, China. The mice were fed with low fat diet [SPF growth and reproduction feed for rats and mice: 12.95% fat (wt/wt), 24.02% protein (wt/wt)] from Beijing KeaoXieli Feed Co. Ltd., Beijing, China in a pathogen-free facility for two weeks, and then divided into the following three groups (8 mice each group): (a) the control group was fed low fat diet, referred to as Chow; (b) the high-fat group was fed high-fat diet (HFD) [21% fat (wt/wt), 0.15% (wt/wt) cholesterol, 20% protein (wt/wt), Research Diets, New Brunswick, NJ, D12079B], referred to as the HFD; (c) the treatment group was fed high-fat diet plus the injection through tail vein with polypeptide 21H21(50μg/200μL lx PBS) once every three days, referred to as the HFD+21H21. The total injection was 10 times. One day after the last injection, the mice were anesthetized and euthanized in carbon dioxide, and then blood, liver and aorta werecollected. During the period of the experiment, each group of mice was weighed. All animal experiments were carried out in accordance with the animal management guidelines of the People's Republic of China.
Aorta separation in Experimental Example 4 was carried out as Tangirala RK, et al. (Circulation. 1999; 100: 1816-1822). […]

Experiment [5] can be described thus: Body weight of LDLR-deficient mice on high-fat diet.
Excerpt: as §2

Values joined by “and” are separate entries in the source; they are usually repeats but may differ in a detail not shown here. Identical values can stand only once. Ends that are not written are not given here. * marks the point of attachment. Stearoyl = CCCCCCCCCCCCCCCCCC(=O)*

As to “21H21: Stearic acid conjugated to the N-terminus of polypeptide SEQ ID NO: 3 (FAYLQDVVEQAIIRVLTGTEK) (Stearoyl-FAYLQDVVEQAIIRVLTGTEK)”, in the experiment on apoE knockout mice [1], the “Prevention of accumulation of neutral lipids at the aortic root caused by high-fat diet” value worked out at 35%. Moreover, the “Effect on weight gain by high-fat diet” value in experiment [2] (50 μg per mouse i.v. once every four days) is reported as “able to offset weight gain”. Further, the “Percentage decrease of body weight (HFD + 21H21 vs HFD)” value in experiment [2] (Day 88) is given as 12.82%; in experiment [2] (Day 97), 14.46%; in experiment [2] (Day 105), 15.79%; in experiment [2] (Day 110), 13.82%; in experiment [2] (Day 119) it was 12.24%; in experiment [2] (Day 123), 15.04%. For the same substance, the “Average body weight per mouse” value in experiment [2] (Day 88, HFD + 21H21 50 μg tail vein once every four days) was found to be 24.38 g; in experiment [2] (Day 97, HFD + 21H21 50 μg tail vein once every four days), 24.83 g; in experiment [2] (Day 105, HFD + 21H21 50 μg tail vein once every four days), 25.21 g; in experiment [2] (Day 110, HFD + 21H21 50 μg tail vein once every four days) it was 25.61 g; in experiment [2] (Day 119, HFD + 21H21 50 μg tail vein once every four days) it was 26.63 g; in experiment [2] (Day 123, HFD + 21H21 50 μg tail vein once every four days), 26.76 g. For the same substance, in the experiment on apoE knockout mice [3], the “Prevention of accumulation of neutral lipids in liver tissue caused by high-fat diet” value stood at 53%. The entries for the “Prevention of atherosclerotic lesion of full-length aorta” value in the experiment with apoE knockout mice [4] and in the experiment with LDLR-deficient mice were 48% and 94%, respectively. Further, the “Percentage of weight gain during experiment” value in experiment [5] (HFD + 21H21 50 μg tail vein once every three days) is listed as 10.02%. Also, the “Average body weight after experiment” value in experiment [5] (HFD + 21H21 50 μg tail vein once every three days, 10 injections) is on record as 29.2 ± 0.02 g. The “Average body weight before experiment” value in experiment [5] (HFD + 21H21 group (n = 8), baseline) amounted to 26.54 ± 0.02 g. In experiment [5] (HFD + 21H21 vs HFD), the “Percentage of weight gain offset by 21H21” value is 29% and 29.17%.
